{"source": "patent US9901637B2", "about": "“Vitamin D3 and analogs thereof for treating alopecia” (priority 2009, dated 2018)", "system": "SKMEL-28 (melanoma)", "assay": "Cell growth/viability assay, calcitriol with or without chemotherapy drug", "format": "cell-based", "data": [{"smiles": "C=C1/C(=C\\C=C2/CCC[C@]3(C)[C@@H]([C@H](C)CCCC(C)(C)O)CC[C@@H]23)C[C@@H](O)C[C@@H]1O", "note": "[Calcitriol, 1,25-dihydroxyvitamin D3]", "values": [{"measurement": "effect of calcitriol on cell growth", "setting": "SKMEL-28", "value": "no significant growth promoting or growth inhibiting effects"}, {"measurement": "effect on the cytotoxic effect of Doxorubicin", "setting": "SKMEL-28", "value": "did not appear to appreciably alter"}, {"measurement": "5-FU ED50 curve with versus without calcitriol", "setting": "SKMEL-28, 0.1 μg/mL calcitriol", "value": "not significantly different"}]}]}
